Where “and” joins values, the source holds several entries; their conditions need not be identical. Identical values can stand only once. Inconclusive results and toxic doses are left out.
Test system: BDF1 mice, L1210 leukemia sc, survival T/C
Assay: NCI In Vivo Anticancer Drug Screen. Data for tumor model L1210 Leukemia (subcutaneous) in B6D2F1 (BDF1) mice
Details: endpoint: median survival time, higher = longer survival
In short: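 Expressed as T/C: measurement in compound-treated, tumor-bearing mice relative to vehicle-treated control mice, based on survival or tumor size.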

[1] = dose: 8.4 mg/kg/injection, schedule: Q01DX Z (sc), vehicle: saline
[2] = dose: 14.0 mg/kg/injection, schedule: Q01DX Z (sc), vehicle: saline

O=C1CN=C(c2ccc[nH]2)c2cc(Cl)ccc2N1
T/C (dose: 2.5 mg/kg/injection, schedule: Q01DX009 (ip), vehicle: clinical formulation): 100 % of control | T/C (dose: 2.5 mg/kg/injection, schedule: Q01DX009 (sc), vehicle: clinical formulation): 88 % of control | T/C (dose: 5.0 mg/kg/injection, schedule: Q01DX009 (ip), vehicle: clinical formulation): 100 % of control | T/C (dose: 5.0 mg/kg/injection, schedule: Q01DX009 (sc), vehicle: clinical formulation): 88 % of control | T/C (dose: 10.0 mg/kg/injection, schedule: Q01DX009 (ip), vehicle: clinical formulation): 88 % of control | T/C (dose: 10.0 mg/kg/injection, schedule: Q01DX009 (sc), vehicle: clinical formulation): 88 % of control | T/C (dose: 12.5 mg/kg/injection, schedule: Q01DX009 (ip), vehicle: Klucel (hydroxypropylcellulose) (HPC)): 100 % of control | T/C (dose: 12.5 mg/kg/injection, schedule: Q01DX009 (sc), vehicle: Klucel (hydroxypropylcellulose) (HPC)): 94 % of control | T/C (dose: 20.0 mg/kg/injection, schedule: Q01DX009 (ip), vehicle: clinical formulation): 100 % of control | T/C (dose: 20.0 mg/kg/injection, schedule: Q01DX009 (sc), vehicle: clinical formulation): 88 % of control | T/C (dose: 25.0 mg/kg/injection, schedule: Q01DX009 (ip), vehicle: Klucel (hydroxypropylcellulose) (HPC)): 88 % of control | T/C (dose: 25.0 mg/kg/injection, schedule: Q01DX009 (sc), vehicle: Klucel (hydroxypropylcellulose) (HPC)): 100 % of control | T/C (dose: 40.0 mg/kg/injection, schedule: Q01DX009 (ip), vehicle: clinical formulation): 100 % of control | T/C (dose: 40.0 mg/kg/injection, schedule: Q01DX009 (sc), vehicle: clinical formulation): 88 % of control | T/C (dose: 50.0 mg/kg/injection, schedule: Q01DX009 (ip), vehicle: Klucel (hydroxypropylcellulose) (HPC)): 100 % of control | T/C (dose: 50.0 mg/kg/injection, schedule: Q01DX009 (ip), vehicle: steriod suspending solution): 111 % of control | T/C (dose: 50.0 mg/kg/injection, schedule: Q01DX009 (sc), vehicle: Klucel (hydroxypropylcellulose) (HPC)): 100 % of control | T/C (dose: 50.0 mg/kg/injection, schedule: Q01DX009 (sc), vehicle: steriod suspending solution): 100 % of control | T/C (dose: 80.0 mg/kg/injection, schedule: Q01DX009 (ip), vehicle: clinical formulation): 88 % of control | T/C (dose: 80.0 mg/kg/injection, schedule: Q01DX009 (ip), vehicle: other): 100 % of control | T/C (dose: 80.0 mg/kg/injection, schedule: Q01DX009 (sc), vehicle: clinical formulation): 100 % of control | T/C (dose: 100.0 mg/kg/injection, schedule: Q01DX009 (ip), vehicle: Klucel (hydroxypropylcellulose) (HPC)): 155 % of control | T/C (dose: 100.0 mg/kg/injection, schedule: Q01DX009 (ip), vehicle: steriod suspending solution): 111 % of control | T/C (dose: 100.0 mg/kg/injection, schedule: Q01DX009 (sc), vehicle: Klucel (hydroxypropylcellulose) (HPC)): 111 % of control | T/C (dose: 100.0 mg/kg/injection, schedule: Q01DX009 (sc), vehicle: steriod suspending solution): 100 % of control | T/C (dose: 100.0 mg/kg/injection, schedule: Q08DX009 (sc), vehicle: Klucel (hydroxypropylcellulose) (HPC)): 100 % of control and 101 % of control | T/C (dose: 200.0 mg/kg/injection, schedule: Q01DX009 (ip), vehicle: steriod suspending solution): 111 % of control | T/C (dose: 200.0 mg/kg/injection, schedule: Q01DX009 (sc), vehicle: Klucel (hydroxypropylcellulose) (HPC)): 172 % of control | T/C (dose: 200.0 mg/kg/injection, schedule: Q01DX009 (sc), vehicle: steriod suspending solution): 105 % of control | T/C (dose: 200.0 mg/kg/injection, schedule: Q08DX009 (sc), vehicle: Klucel (hydroxypropylcellulose) (HPC)): 105 % of control | T/C (dose: 400.0 mg/kg/injection, schedule: Q01DX009 (ip), vehicle: steriod suspending solution): 150 % of control | T/C (dose: 400.0 mg/kg/injection, schedule: Q01DX009 (sc), vehicle: Klucel (hydroxypropylcellulose) (HPC)): 183 % of control | T/C (dose: 400.0 mg/kg/injection, schedule: Q01DX009 (sc), vehicle: steriod suspending solution): 166 % of control | T/C (dose: 400.0 mg/kg/injection, schedule: Q08DX009 (sc), vehicle: Klucel (hydroxypropylcellulose) (HPC)): 98 % of control and 100 % of control | T/C (dose: 800.0 mg/kg/injection, schedule: Q01DX009 (sc), vehicle: steriod suspending solution): 166 % of control | T/C (dose: 2313.0 mg/kg/injection, schedule: Q01DX009 (sc), vehicle: Klucel (hydroxypropylcellulose) (HPC)): 88 % of control and 93 % of control | T/C (dose: 3855.0 mg/kg/injection, schedule: Q01DX009 (sc), vehicle: Klucel (hydroxypropylcellulose) (HPC)): 87 % of control

Nc1n[nH]c(N)n1
T/C (dose: 125.0 mg/kg/injection, schedule: Q03HX024 (sc), vehicle: none): 110 % of control | T/C (dose: 180.0 mg/kg/injection, schedule: Q03HX024 (ip), vehicle: water): 116 % of control | T/C (dose: 180.0 mg/kg/injection, schedule: Q03HX024 (sc), vehicle: water): 122 % of control | T/C (dose: 250.0 mg/kg/injection, schedule: Q03HX024 (sc), vehicle: none): 120 % of control | T/C (dose: 250.0 mg/kg/injection, schedule: Q#A X018 (sc), vehicle: none): 120 % of control | T/C (dose: 432.0 mg/kg/injection, schedule: Q01DX Z (sc), vehicle: water): 104 % of control | T/C (dose: 500.0 mg/kg/injection, schedule: Q03HX024 (ip), vehicle: water): 177 % of control | T/C (dose: 500.0 mg/kg/injection, schedule: Q03HX024 (sc), vehicle: water): 166 % of control | T/C (dose: 500.0 mg/kg/injection, schedule: Q04DX003 (sc), vehicle: none): 110 % of control | T/C (dose: 500.0 mg/kg/injection, schedule: Q#A X018 (sc), vehicle: none): 160 % of control | T/C (dose: 720.0 mg/kg/injection, schedule: Q01DX Z (sc), vehicle: water): 109 % of control | T/C (dose: 1000.0 mg/kg/injection, schedule: Q03HX024 (sc), vehicle: none): 110 % of control | T/C (dose: 1000.0 mg/kg/injection, schedule: Q04DX003 (sc), vehicle: none): 110 % of control | T/C (dose: 1000.0 mg/kg/injection, schedule: Q08DX009 (sc), vehicle: none): 150 % of control | T/C (dose: 1000.0 mg/kg/injection, schedule: Q#A X018 (sc), vehicle: none): 100 % of control | T/C (dose: 2000.0 mg/kg/injection, schedule: Q01DX Z (sc), vehicle: water): 150 % of control | T/C (dose: 2000.0 mg/kg/injection, schedule: Q04DX003 (sc), vehicle: none): 115 % of control | T/C (dose: 2000.0 mg/kg/injection, schedule: Q#A X018 (sc), vehicle: none): 90 % of control | T/C (dose: 4000.0 mg/kg/injection, schedule: Q04DX003 (sc), vehicle: none): 120 % of control | T/C (dose: 4000.0 mg/kg/injection, schedule: Q08DX009 (sc), vehicle: none): 150 % of control

O=C(Nc1ccc(S(=O)(=O)O)cc1)c1ccc([N+](=O)[O-])cc1
T/C (dose: 8.4 mg/kg/injection, schedule: Q01DX Z (sc), vehicle: water): 155 % of control | T/C (dose: 14.0 mg/kg/injection, schedule: Q01DX Z (sc), vehicle: water): 194 % of control | T/C (dose: 23.0 mg/kg/injection, schedule: Q01DX Z (sc), vehicle: water): 150 % of control

C[n+]1c2ccccc2nc2c(N)cc(N)cc21
T/C (dose: 1.8 mg/kg/injection, schedule: Q01DX Z (sc), vehicle: saline): 100 % of control | T/C (dose: 3.0 mg/kg/injection, schedule: Q01DX Z (sc), vehicle: saline): 100 % of control | T/C (dose: 5.0 mg/kg/injection, schedule: Q01DX Z (sc), vehicle: saline): 100 % of control | T/C [1]: 100 % of control | T/C [2]: 100 % of control | T/C (dose: 23.0 mg/kg/injection, schedule: Q01DX Z (sc), vehicle: methylcellulose (MC)): 105 % of control | T/C (dose: 23.0 mg/kg/injection, schedule: Q01DX Z (sc), vehicle: saline): 111 % of control | T/C (dose: 39.0 mg/kg/injection, schedule: Q01DX Z (sc), vehicle: methylcellulose (MC)): 105 % of control | T/C (dose: 39.0 mg/kg/injection, schedule: Q01DX Z (sc), vehicle: saline): 111 % of control | T/C (dose: 65.0 mg/kg/injection, schedule: Q01DX Z (sc), vehicle: methylcellulose (MC)): 105 % of control

CCCOC1=C(N2CC2)C(=O)C(OCCC)=C(N2CC2)C1=O
T/C [1]: 110 % of control | T/C [2]: 110 % of control | T/C (dose: 108.0 mg/kg/injection, schedule: Q01DX Z (sc), vehicle: saline): 115 % of control
